Literature values, collected in patent US4256737A, “Long acting depot injectable formulations for LH-RH analogues” (Syntex (U.S.A.) Inc., priority 1979, dated 1981).

Settings: background statement

## (pyro)Glu-His-Trp-Ser-Tyr-Gly-Leu-Arg-Pro-Gly-NH2 [natural LH-RH]
  biological halflife: 1-2 hours
